A short description of assay [1]: Inhibition of human […]-RET kinase-V804M mutant in presence of [gamma33P]-ATP and 10 uM ATP by radiometric HotSpot assay.
Assay [2] deals with Proto-oncogene tyrosine-protein kinase receptor Ret (Homo sapiens, UniProt P07949, V804M). As to the kind of experiment: Inhibition of human RET kinase-V804M mutant using RRRRRRRRRRRVYSTDYYRLFNPS as substrate in presence of [gamma33P]-ATP and 10 uM ATP by radiometric HotSpot assay.
Assay [3] addresses Proto-oncogene tyrosine-protein kinase receptor Ret (Homo sapiens, UniProt P07949, G810R). As to the kind of experiment: Inhibition of human RET kinase-G810R mutant using RRRRRRRRRRRVYSTDYYRLFNPS as substrate in presence of [gamma33P]-ATP and 10 uM ATP by radiometric HotSpot assay.
Assay [4] relates to Proto-oncogene tyrosine-protein kinase receptor Ret (Homo sapiens), P07949 [V804M]. In words: Inhibition of human RET kinase-V804M mutant at 0.1 uM using RRRRRRRRRRRVYSTDYYRLFNPS as substrate in presence of [gamma33P]-ATP and 10 uM ATP by radiometric HotSpot assay relative to control.
Sequence of Proto-oncogene tyrosine-protein kinase receptor Ret (Homo sapiens), P07949 [V804M] (P07949 whole entry V804M): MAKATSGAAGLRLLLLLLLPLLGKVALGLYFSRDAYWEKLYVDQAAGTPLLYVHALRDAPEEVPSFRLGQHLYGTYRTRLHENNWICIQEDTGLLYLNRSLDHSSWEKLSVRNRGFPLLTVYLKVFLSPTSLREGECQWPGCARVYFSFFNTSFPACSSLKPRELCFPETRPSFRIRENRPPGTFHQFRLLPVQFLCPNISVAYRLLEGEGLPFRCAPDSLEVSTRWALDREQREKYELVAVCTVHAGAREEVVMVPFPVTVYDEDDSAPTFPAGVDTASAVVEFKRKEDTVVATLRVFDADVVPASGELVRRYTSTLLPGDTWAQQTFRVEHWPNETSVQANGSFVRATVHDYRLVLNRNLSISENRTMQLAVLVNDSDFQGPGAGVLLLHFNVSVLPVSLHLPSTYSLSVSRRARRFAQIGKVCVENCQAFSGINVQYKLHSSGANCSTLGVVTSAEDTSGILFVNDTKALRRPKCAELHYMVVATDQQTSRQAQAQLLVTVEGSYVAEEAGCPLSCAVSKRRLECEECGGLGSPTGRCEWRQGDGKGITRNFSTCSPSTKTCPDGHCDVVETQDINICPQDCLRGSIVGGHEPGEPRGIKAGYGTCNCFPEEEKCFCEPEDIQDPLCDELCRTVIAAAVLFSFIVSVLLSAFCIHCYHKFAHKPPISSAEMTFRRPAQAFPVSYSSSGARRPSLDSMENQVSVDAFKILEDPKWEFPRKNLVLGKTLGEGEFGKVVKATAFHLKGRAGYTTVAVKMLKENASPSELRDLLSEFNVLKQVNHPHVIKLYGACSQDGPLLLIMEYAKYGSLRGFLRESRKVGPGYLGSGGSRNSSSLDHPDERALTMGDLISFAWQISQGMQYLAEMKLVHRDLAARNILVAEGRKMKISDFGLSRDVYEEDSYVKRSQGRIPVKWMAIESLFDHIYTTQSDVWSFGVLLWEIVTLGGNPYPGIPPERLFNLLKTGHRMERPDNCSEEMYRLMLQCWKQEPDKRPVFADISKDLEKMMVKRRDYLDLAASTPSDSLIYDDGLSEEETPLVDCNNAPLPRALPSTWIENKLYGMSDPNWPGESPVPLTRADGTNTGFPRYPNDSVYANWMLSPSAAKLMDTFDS
The subject of assay [5] is Proto-oncogene tyrosine-protein kinase receptor Ret (Homo sapiens), P07949 [G810R]. As to the kind of experiment: Inhibition of human RET kinase-G810R mutant assessed as residual activity at 0.1 uM using RRRRRRRRRRRVYSTDYYRLFNPS as substrate in presence of [gamma33P]-ATP and 10 uM ATP by radiometric HotSpot assay.
In assay [6] the test system is BaF3. As to the kind of experiment: Cytotoxicity against mouse BaF3 cells expressing […]-RET kinase fusion protein assessed as inhibition of cell proliferation incubated for 72 hrs by CCK8 assay. It counts as functional, cell-based. The following applies: BaF3, 72 h.
Assay [7] relates to BaF3. As to the kind of experiment: Cytotoxicity against mouse BaF3 cells expressing […]-RET kinase-V804M mutant fusion protein assessed as inhibition of cell proliferation incubated for 72 hrs by CCK8 assay. It counts as functional, cell-based. Conditions: BaF3, 72 h. A general note: Tetrazolium dyes change colour on reduction, which living cells bring about.
Assay [8] relates to BaF3. In words: Cytotoxicity against mouse BaF3 cells expressing […]-RET kinase-G810R mutant fusion protein assessed as inhibition of cell proliferation incubated for 72 hrs by CCK8 assay. The assay is classed as functional, cell-based. The following applies: BaF3, 72 h.
Assay [9] has as its system BaF3. In words: Cytotoxicity against mouse BaF3 cells expressing […]-RET kinase-G810A mutant fusion protein assessed as inhibition of cell proliferation incubated for 72 hrs by CCK8 assay. The assay is classed as functional, cell-based. The following applies: BaF3, 72 h.
In assay [10] the test system is BaF3. In words: Cytotoxicity against mouse BaF3 cells expressing […]-RET kinase-G810S mutant fusion protein assessed as inhibition of cell proliferation incubated for 72 hrs by CCK8 assay. The assay is classed as functional, cell-based. Conditions: BaF3, 72 h.
The test system of assay [11] is BaF3. As to the kind of experiment: Cytotoxicity against mouse BaF3 cells expressing […]-RET kinase-V804L mutant fusion protein assessed as inhibition of cell proliferation incubated for 72 hrs by CCK8 assay. The assay is classed as functional, cell-based. The following applies: BaF3, 72 h.
Assay [12] relates to BaF3. In words: Cytotoxicity against mouse BaF3 cells expressing […]-RET kinase-G810C mutant fusion protein assessed as inhibition of cell proliferation incubated for 72 hrs by CCK8 assay. The assay is classed as functional, cell-based. Conditions: BaF3, 72 h.
The target of assay [13] is Proto-oncogene tyrosine-protein kinase receptor Ret (Homo sapiens, UniProt P07949). In words: Inhibition of human wild type RET kinase using RRRRRRRRRRRVYSTDYYRLFNPS as substrate in presence of [gamma33P]-ATP and 10 uM ATP by radiometric HotSpot assay.
Sequence of Proto-oncogene tyrosine-protein kinase receptor Ret (Homo sapiens, UniProt P07949) (P07949 whole entry): as the sequence (P07949 whole entry V804M) above, with M804V counted along it
Assay [14] deals with Kinesin-1 heavy chain/ Tyrosine-protein kinase receptor RET (Homo sapiens, UniProt P07949). In words: Inhibition of human […]-RET kinase in presence of [gamma33P]-ATP and 10 uM ATP by radiometric HotSpot assay. It counts as protein assay.
Sequence of Kinesin-1 heavy chain/ Tyrosine-protein kinase receptor RET (P07949 whole entry): as the sequence (P07949 whole entry V804M) above, with M804V counted along it
Sequence of Kinesin-1 heavy chain/ Tyrosine-protein kinase receptor RET (P33176 whole entry, further chain): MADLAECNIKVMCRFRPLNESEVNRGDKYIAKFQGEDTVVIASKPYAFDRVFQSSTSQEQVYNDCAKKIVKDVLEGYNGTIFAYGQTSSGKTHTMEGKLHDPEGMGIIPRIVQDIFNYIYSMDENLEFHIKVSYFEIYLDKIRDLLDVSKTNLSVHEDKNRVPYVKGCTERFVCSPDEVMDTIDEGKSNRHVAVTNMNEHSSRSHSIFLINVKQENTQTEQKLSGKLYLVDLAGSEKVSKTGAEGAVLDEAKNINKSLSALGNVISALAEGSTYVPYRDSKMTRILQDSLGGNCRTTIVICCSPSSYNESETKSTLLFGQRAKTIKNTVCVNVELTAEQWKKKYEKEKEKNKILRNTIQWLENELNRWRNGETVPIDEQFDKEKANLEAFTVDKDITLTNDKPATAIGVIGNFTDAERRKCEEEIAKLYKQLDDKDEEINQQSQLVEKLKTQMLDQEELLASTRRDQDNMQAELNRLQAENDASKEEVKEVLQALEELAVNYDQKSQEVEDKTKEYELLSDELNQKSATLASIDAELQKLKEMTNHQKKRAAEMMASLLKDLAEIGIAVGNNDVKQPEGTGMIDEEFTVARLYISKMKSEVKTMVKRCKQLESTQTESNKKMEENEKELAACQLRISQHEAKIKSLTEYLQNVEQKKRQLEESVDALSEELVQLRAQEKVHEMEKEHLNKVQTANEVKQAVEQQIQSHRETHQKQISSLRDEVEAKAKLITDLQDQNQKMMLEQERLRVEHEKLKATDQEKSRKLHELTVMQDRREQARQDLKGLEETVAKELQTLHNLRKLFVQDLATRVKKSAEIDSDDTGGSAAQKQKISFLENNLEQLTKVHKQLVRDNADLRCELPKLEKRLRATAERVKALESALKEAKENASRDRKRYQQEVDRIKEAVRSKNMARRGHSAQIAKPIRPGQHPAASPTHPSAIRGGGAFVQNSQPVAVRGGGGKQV

Sequence of Proto-oncogene tyrosine-protein kinase receptor Ret (Homo sapiens, UniProt P07949, G810R) (P07949 29-1114 G810R limits assumed): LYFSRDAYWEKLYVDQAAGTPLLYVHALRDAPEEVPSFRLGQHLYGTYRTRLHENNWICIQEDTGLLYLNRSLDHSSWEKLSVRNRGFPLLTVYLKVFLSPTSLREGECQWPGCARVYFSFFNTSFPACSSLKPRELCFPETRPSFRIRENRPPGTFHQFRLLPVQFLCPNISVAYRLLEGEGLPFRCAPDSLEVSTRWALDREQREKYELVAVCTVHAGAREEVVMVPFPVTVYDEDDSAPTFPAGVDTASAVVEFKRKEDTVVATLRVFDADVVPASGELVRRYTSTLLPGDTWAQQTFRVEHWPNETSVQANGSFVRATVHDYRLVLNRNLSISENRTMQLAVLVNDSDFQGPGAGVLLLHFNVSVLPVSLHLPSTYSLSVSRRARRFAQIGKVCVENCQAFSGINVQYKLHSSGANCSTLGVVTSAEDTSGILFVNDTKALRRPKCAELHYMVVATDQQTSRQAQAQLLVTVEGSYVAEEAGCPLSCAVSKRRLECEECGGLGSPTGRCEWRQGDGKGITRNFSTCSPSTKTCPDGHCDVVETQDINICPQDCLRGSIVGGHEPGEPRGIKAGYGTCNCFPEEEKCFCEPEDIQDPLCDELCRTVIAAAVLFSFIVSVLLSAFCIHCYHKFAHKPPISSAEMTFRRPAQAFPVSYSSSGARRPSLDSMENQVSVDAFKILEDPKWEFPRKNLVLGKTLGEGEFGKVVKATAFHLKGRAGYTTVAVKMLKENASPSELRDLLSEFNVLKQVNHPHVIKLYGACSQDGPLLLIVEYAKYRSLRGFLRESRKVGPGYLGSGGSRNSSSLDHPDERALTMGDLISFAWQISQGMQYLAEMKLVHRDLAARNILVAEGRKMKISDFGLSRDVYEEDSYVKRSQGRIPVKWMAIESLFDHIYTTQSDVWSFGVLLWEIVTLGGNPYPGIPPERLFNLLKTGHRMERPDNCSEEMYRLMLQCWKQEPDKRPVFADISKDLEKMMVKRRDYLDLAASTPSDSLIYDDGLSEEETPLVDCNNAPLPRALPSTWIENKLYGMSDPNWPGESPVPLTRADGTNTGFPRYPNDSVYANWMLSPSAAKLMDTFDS
Sequence of Proto-oncogene tyrosine-protein kinase receptor Ret (Homo sapiens, UniProt P07949, V804M) (P07949 29-1114 V804M limits assumed): as the sequence (P07949 29-1114 G810R limits assumed) above, with V776M, R782G counted along it
Sequence of Proto-oncogene tyrosine-protein kinase receptor Ret (Homo sapiens), P07949 [G810R] (P07949 whole entry G810R, the tested form may be a part): as the sequence (P07949 whole entry V804M) above, with M804V, G810R counted along it

`Cc1ccc(C(=O)Nc2cc(CN3CCN(C)CC3)cc(C(F)(F)F)c2)cc1C#Cc1cnc2ccc(Cl)nn12`: the IC50 was 281 nM in assay [1], less than 0.5 nM in assay [2] and 19.8 nM in [3]. For the same compound, in assay [4], the inhibition was determined as 100%.

Regarding `Cc1ccc(C(=O)Nc2cc(CN3CCN(C)CC3)cc(C(F)(F)F)c2)cc1C#Cc1cnc2ccc(N3CCOCC3)nn12`, the IC50 in assay [1] was 47.8 nM; in [2], 0.1 nM; in assay [3], 41.3 nM. For the same compound, the Activity in assay [5] is 26.4%.

As for `COc1ccc(CN2C3CC2CN(c2ccc(-c4cc(OCC(C)(C)O)cn5ncc(C#N)c45)cn2)C3)cn1` [SELPERCATINIB], the half-inhibitory concentration (IC50) came out at 10 nM in the assay with BaF3 [6]; 100 nM in the assay with BaF3 [7]; 2100 nM with BaF3 [8]; 260 nM in the assay on BaF3 [9]; 400 nM in the assay with BaF3 [10]; 20 nM with BaF3 [11]. For the same compound, the IC50 in the assay with BaF3 [12] was 5800 nM.

Turning to `Cc1cn(-c2cc(NC(=O)c3cc(C#Cc4cnc5ccc(OCCN6CCOCC6)nn45)c(C)cc3F)cc(C(C)(C)C#N)c2)cn1`, the IC50 in [1] was 622 nM; in assay [2], 7.4 nM; in [3], 1300 nM; in the assay on BaF3 [6], 100 nM; with BaF3 [7] it was 1600 nM; with BaF3 [8], 400 nM. Further, the IC50 is 50 nM with BaF3 [9]; 345 nM in assay [13]; 100 nM in the assay with BaF3 [10]; 1800 nM in the assay with BaF3 [11]; 600 nM with BaF3 [12]; 43.7 nM in [14].

As for `COc1ccc(Nc2ccc3ncc(C#Cc4cc(C(=O)Nc5cc(CN6CCN(C)CC6)cc(C(F)(F)F)c5)ccc4C)n3n2)cc1`, the IC50 in [1] was 137 nM; in assay [2], 0.9 nM; in assay [3], 89.8 nM. Moreover, in assay [5], the Activity is 46.6%.

For the compound `CCOC(=O)c1nc2ccc(NCCN3CCCCC3)nn2c1C#Cc1cc(C(=O)Nc2cc(-n3cnc(C)c3)cc(C(C)(C)C#N)c2)c(NCCN2CCCCC2)cc1C`, the IC50 in the assay with BaF3 [6] stood at 900 nM; in the assay with BaF3 [8], 1200 nM; in the assay with BaF3 [9] it was 1200 nM; in the assay on BaF3 [10], 1600 nM; in the assay on BaF3 [11], 1600 nM; in the assay with BaF3 [12], 1700 nM.

With `Cc1ccc(C(=O)Nc2ccc(CN3CCN(C)CC3)c(C(F)(F)F)c2)cc1C#Cc1cnc2ccc(OCCN3CCOCC3)nn12`, the IC50 in [1] is 84.5 nM; in [2], less than 0.5 nM; in assay [3] it was 11 nM; in [13], 478 nM; in assay [14], 129 nM.

With `Cc1ccc(C(=O)Nc2ccc(CN3CCN(C)CC3)c(C(F)(F)F)c2)cc1C#Cc1cnc2ccc(OCCNC(C)C)nn12`, the IC50 in assay [1] was 19.4 nM; in assay [2] it was less than 0.5 nM; in [3], 25.3 nM; in assay [13], 3.6 nM; in assay [14], 1.2 nM.

As to `CCOC(=O)c1nc2n(c1C#Cc1cc(C(=O)Nc3cc(-n4cnc(C)c4)cc(C(F)(F)F)c3)ccc1C)NC(NC1CC1)C=C2` (stereo not drawn), the IC50 was determined as 3000 nM in the assay on BaF3 [6]; 3800 nM in the assay on BaF3 [8]; 3800 nM with BaF3 [9]; 3000 nM with BaF3 [10]; 3300 nM in the assay with BaF3 [11]; 2900 nM in the assay with BaF3 [12].

Take `CCOC(=O)c1nc2ccc(Nc3cc(C)[nH]n3)nn2c1C#Cc1cc(C(=O)Nc2cc(-n3cnc(C)c3)cc(C(F)(F)F)c2)ccc1C`: the IC50 in assay [1] is greater than 2000 nM; in assay [2], 102 nM; in assay [3] it was greater than 2000 nM; in [13], 921 nM; in [14], greater than 2000 nM.

As usually defined, the IC50 is the concentration at which inhibition is half-maximal. A word on the inhibition: it is the percentage by which the read-out fell short of the control.

The record behind these values is ChEMBL document CHEMBL5614446, “Side Chain Investigation of Imidazopyridazine as a Hinge Binder for Targeting Actionable Mutations of RET Kinase” (ACS Med Chem Lett, 2024).
